According to publication PMC11859264, “Discovery of a Novel Multitarget Analgesic Through an In Vivo-Guided Approach” (Pharmaceuticals, 2025):

How the values were obtained:
[1] = Metabolic stability assay in liver microsomes; format: in vitro ADME; details: 30 min
Method: In the in vitro metabolic stability study, the stability of compound 29 was evaluated using liver microsomes derived from both mouse and human sources. The primary objectives of this study were to determine the metabolic clearance rate of compound 29 over a defined time period, enabling an assessment of its intrinsic clearance. Microsomal incubations were performed, and the percentage of intact compound remaining was quantified at specific time points. […] The remaining substrate was quantified using the Nexera XR system (Shimadzu, Japan) and TSQ Vantage mass spectrometer (Thermo, Waltham, MA, USA). […] Metabolites were analyzed using the Multiple Reaction Monitoring (MRM) quantification mode in the Xcalibur software (version 4.4). The experiment was performed in duplicate with variability within 15%. Results were calculated as % remaining by comparing the test compound quantified after a 30 min reaction to the initial value at 0 min.

Dopamine D2L = molecular target: T1, Dopamine D2L (Homo sapiens, UniProt P14416); assay: Radioligand binding, [3H] Spiperone, Eurofins
T1 construct: host or cells: CHO cells
T1 sequence (P14416 whole entry): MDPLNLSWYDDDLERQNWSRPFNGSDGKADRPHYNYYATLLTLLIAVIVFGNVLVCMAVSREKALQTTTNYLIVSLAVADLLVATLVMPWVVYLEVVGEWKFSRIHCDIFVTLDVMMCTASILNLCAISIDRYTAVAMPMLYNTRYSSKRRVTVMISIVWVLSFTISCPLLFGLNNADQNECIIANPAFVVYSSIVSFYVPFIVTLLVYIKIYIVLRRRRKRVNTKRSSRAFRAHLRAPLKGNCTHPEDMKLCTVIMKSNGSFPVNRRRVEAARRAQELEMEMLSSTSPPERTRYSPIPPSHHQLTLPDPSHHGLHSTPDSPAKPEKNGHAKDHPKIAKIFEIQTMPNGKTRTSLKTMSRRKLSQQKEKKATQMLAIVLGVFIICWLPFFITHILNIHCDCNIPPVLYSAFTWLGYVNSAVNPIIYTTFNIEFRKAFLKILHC

formalin model = assay: Formalin test in mice (primary in vivo screening and ED50); set-up: species or system ICR male mice
Method: For primary screening, the synthesized compounds were administered to mice via intraperitoneal injection at a dose of 5 mg/kg using the formalin model. The percentage inhibition in the second phase, relative to the vehicle control (DMSO/cremophor EL/distilled water = 10:10:80), was calculated.
Each compound was assessed using four doses (0.1, 1, 5, and 10 mg/kg) by intraperitoneal injection.
ICR male mice weighing 23–25 g was purchased from Samtako Korea (Osan, Republic of Korea). ICR mice were housed four per cage in a room with 12 h light–dark cycles. The temperature and relative humidity of the room were maintained at 22 ± 2 °C and 50 ± 5%, respectively. Food and water were available ad libitum. The procedures for animal testing were approved by Medifron Animal Care and Use Committees (Approval number; Medifron 2019-9). Efforts were made to minimize animal suffering and to reduce the number of animals used.
Mice were randomly assigned to five groups (four per group) and single-dose drugs were administered by intraperitoneal injection. The formalin-induced licking paw test was modified from the method described by Dubuisson and Dennis. Each mouse was acclimated to an acrylic observation chamber for at least 30 min before the injection of formalin. Twenty microliters of 2% formalin were injected subcutaneously into the right side of the hind paw. Each mouse was then placed in an individual clear plastic observational chamber (15 × 15 × 15 cm, volume = […] or 3.375 L), and the pain response was recorded for a period of 30 min. The summation of time (in seconds) spent in licking and biting responses of the injected paw during each 5 min block was measured as an indicator of the pain response. The first period (early phase) was recorded 0–5 min after the injection of formalin, and the second period (late phase) was recorded 20–30 min after the injection. The test compound was administered intraperitoneally 30 min before the formalin injection at […]: 0.1, 1, 5, and 10 mg/kg. The vehicle was DMSO/Cremophor EL/distilled water (10/10/80). The data were expressed as the mean ± standard error of the mean (SEM). Statistical analysis was assessed by one-way analysis of variance (ANOVA) with Bonferroni’s post hoc test. Statistical significance was set at p-value < 0.05, with values of p <0.001 considered highly significant.

[2] = molecular target: T2, Transporter, Serotonin (SERT) (Homo sapiens, UniProt P31645); assay: Radioligand binding, [3H] Paroxetine, Eurofins
T2 construct: host or cells: HEK-293 cells
T2 sequence (P31645 whole entry): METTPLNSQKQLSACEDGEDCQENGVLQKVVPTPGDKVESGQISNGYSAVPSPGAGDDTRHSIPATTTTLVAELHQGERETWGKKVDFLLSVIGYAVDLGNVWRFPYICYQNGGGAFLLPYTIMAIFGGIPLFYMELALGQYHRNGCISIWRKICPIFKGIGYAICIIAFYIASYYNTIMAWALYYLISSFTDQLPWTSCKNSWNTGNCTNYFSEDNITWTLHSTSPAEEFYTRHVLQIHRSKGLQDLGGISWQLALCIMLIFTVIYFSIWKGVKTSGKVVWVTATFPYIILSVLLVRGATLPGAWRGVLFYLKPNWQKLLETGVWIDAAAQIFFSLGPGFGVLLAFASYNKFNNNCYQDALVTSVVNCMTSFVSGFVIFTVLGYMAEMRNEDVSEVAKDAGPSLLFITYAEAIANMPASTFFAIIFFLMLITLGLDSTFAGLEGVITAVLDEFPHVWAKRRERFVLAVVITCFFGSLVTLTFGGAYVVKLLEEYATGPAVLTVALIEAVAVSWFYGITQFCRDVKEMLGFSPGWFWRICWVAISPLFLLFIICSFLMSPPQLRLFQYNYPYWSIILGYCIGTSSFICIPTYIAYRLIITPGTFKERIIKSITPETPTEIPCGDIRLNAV

CYP3A4 = CYP3A4 (Homo sapiens, UniProt P08684); assay: in vitro; details: microsomes, pH 7.4
Chain of CYP3A4 (P08684 whole entry): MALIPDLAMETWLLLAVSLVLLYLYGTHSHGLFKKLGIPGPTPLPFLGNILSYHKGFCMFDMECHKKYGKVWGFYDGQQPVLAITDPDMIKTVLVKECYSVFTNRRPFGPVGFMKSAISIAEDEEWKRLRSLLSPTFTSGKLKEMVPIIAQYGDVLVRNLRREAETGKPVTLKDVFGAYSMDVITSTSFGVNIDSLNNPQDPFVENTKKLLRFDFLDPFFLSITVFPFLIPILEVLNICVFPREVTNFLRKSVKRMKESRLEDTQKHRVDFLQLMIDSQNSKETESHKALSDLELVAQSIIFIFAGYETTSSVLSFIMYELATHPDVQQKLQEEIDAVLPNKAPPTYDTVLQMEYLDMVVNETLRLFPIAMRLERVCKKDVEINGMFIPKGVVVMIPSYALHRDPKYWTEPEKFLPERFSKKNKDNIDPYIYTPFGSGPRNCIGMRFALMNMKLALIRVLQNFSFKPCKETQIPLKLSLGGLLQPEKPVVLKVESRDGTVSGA

hERG = hERG (Homo sapiens, UniProt Q12809); assay: biochemical
Chain of hERG (Q12809 whole entry): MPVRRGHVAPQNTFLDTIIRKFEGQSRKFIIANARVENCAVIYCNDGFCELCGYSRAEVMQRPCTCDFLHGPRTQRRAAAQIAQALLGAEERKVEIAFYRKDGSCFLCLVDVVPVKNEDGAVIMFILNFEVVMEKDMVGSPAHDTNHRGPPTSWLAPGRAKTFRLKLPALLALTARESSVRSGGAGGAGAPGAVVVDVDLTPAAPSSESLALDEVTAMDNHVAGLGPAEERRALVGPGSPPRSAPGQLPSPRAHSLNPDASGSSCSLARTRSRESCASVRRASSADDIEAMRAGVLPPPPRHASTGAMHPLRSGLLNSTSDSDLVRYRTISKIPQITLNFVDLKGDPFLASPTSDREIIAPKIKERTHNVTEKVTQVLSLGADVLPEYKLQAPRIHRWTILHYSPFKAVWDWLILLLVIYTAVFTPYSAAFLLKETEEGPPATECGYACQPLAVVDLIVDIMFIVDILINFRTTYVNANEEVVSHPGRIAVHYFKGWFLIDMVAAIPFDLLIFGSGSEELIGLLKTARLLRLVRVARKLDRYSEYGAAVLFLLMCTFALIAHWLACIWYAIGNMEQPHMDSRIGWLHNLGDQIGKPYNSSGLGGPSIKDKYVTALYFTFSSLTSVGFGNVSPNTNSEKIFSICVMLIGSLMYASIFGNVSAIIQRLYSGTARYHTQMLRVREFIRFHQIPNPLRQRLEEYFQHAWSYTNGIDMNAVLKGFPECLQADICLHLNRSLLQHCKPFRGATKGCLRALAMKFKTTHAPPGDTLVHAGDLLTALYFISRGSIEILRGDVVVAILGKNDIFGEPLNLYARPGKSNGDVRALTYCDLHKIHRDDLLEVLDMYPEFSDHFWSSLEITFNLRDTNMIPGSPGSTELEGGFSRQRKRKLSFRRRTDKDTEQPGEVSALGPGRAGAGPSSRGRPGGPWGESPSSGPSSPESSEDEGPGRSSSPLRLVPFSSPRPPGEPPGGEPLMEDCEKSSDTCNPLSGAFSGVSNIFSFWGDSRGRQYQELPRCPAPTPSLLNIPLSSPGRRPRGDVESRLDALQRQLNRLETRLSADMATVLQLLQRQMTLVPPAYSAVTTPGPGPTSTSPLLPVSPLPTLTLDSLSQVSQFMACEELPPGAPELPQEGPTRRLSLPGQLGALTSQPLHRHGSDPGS

Serotonin 5-HT2A = Serotonin 5-HT2A (Homo sapiens, UniProt P28223); assay: Radioligand binding, [3H] Ketanserin, Eurofins
Chain of Serotonin 5-HT2A (P28223 whole entry): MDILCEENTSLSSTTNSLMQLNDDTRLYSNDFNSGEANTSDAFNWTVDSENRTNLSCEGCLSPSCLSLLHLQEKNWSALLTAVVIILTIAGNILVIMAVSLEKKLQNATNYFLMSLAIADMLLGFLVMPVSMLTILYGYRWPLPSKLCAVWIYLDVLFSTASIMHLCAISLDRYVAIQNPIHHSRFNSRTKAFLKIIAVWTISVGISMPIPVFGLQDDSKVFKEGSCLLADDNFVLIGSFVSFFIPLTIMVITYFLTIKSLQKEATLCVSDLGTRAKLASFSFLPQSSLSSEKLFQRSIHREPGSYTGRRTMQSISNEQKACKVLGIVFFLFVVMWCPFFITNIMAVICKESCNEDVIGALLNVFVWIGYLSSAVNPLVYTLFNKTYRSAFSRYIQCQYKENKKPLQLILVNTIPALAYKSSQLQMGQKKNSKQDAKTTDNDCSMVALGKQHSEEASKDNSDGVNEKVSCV

With `N#Cc1ccc2[nH]cc(C(=O)NCCN3CCN(c4ccc5ccccc5n4)CC3)c2c1` [Compound 29, 5-Cyano-N-(2-(4-(quinolin-2-yl)piperazin-1-yl)ethyl)-1H-indole-3-carboxamide] the remaining at 0.5 h, 1 µM ([1]; pH 7.4, human liver microsomes) was 55.6%, the remaining at 0.5 h, 1 µM ([1]; pH 7.4, mouse liver microsomes) was 51.2% and the “nH (Hill coefficient)” value (Dopamine D2L; Dopamine D2L) was 0.86. For the same compound, the Ki (Dopamine D2L; Dopamine D2L, Cheng and Prusoff) was 1850 nM, the IC50 (Dopamine D2L; Dopamine D2L, human recombinant CHO cells) was 5540 nM and the “times the activity of reference compound spiperone” value (Dopamine D2L; ratio of Ki values) was 0.02. The ED50 (formalin model; Mus musculus, ip, read-out: ED50 in the second phase of the formalin model) was 0.78 mg/kg, the “activity in the first phase of the formalin model” value (formalin model; mice, intraperitoneal, first phase) was “relatively weak” and the “nH (Hill coefficient)” value ([2]; SERT) was 0.84. The Ki ([2]; SERT, Cheng and Prusoff) was 130 nM, the IC50 ([2]; SERT, human recombinant HEK-293 cells) was 780 nM and the “times more potent at SERT compared to fluoxetine” value ([2]; ratio of Ki values) was 13. The inhibition at 15 min, 10 µM (CYP3A4) was 78%, the IC50 (hERG) was ~10000 nM and the “nH (Hill coefficient)” value (Serotonin 5-HT2A; Serotonin 5-HT2A) was 0.88. For the same compound, the Ki (Serotonin 5-HT2A; Serotonin 5-HT2A, Cheng and Prusoff) was 150 nM, the IC50 (Serotonin 5-HT2A; Serotonin 5-HT2A, human recombinant CHO-Ki cells) was 520 nM and the “times the activity of reference compound ketanserin” value (Serotonin 5-HT2A; ratio of Ki values) was 1.53.
